Experiment [1] deals with T1, Mitogen-activated protein kinase kinase kinase 5 (Homo sapiens, UniProt Q99683).
T1 sequence (Q99683 whole entry): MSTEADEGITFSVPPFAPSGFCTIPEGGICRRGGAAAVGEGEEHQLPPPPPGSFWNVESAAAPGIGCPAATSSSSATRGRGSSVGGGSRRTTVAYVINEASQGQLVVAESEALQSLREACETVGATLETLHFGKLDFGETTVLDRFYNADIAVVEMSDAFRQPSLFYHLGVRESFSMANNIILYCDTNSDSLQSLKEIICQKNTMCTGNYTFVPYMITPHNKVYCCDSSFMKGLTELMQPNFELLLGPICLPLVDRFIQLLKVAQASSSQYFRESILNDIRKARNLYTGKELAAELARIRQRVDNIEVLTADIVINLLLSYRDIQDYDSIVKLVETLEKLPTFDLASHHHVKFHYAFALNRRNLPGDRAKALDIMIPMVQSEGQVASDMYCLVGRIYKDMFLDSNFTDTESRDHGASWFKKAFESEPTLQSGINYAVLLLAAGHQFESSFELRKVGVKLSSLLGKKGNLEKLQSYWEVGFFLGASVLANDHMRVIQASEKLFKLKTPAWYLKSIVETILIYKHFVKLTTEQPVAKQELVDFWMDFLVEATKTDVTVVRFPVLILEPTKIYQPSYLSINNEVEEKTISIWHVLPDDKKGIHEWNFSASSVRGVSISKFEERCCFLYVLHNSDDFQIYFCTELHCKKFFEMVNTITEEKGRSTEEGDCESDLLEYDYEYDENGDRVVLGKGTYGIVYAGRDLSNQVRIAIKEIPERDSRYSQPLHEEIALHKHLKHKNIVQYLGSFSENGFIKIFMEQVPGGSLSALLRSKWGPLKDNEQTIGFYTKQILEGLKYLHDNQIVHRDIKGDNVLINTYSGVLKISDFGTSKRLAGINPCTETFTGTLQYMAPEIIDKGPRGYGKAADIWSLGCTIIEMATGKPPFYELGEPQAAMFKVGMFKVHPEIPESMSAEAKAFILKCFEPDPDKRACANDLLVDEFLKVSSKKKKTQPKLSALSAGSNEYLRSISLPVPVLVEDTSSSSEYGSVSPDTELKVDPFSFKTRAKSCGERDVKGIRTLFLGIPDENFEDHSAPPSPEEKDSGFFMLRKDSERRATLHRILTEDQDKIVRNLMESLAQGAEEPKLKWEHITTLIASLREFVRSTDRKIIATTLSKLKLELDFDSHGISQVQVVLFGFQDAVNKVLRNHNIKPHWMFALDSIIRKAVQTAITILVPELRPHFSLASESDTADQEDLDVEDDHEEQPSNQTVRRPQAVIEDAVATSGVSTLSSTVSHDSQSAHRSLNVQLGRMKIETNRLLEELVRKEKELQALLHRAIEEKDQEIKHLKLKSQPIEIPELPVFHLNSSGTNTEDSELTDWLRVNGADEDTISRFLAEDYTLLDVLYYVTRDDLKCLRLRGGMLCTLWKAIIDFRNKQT
Kind of experiment: Inhibition of ASK1 (unknown origin) using biotin-MBP as substrate after 20 mins by TR-FRET assay. (In general: Time-resolved FRET reads energy transfer from a long-lived donor to a nearby acceptor.)

Experiment [2] concerns the target T1, Mitogen-activated protein kinase kinase kinase 5. Kind of experiment: Inhibition of ASK1 (unknown origin) assessed as reduction in JNK phosphorylation by cell based assay.
Experiment [3] addresses T2, Mitogen-activated protein kinase kinase kinase 5 (Homo sapiens) (UniProt Q99683).
T2 sequence (whole entry): T1 sequence (Q99683 whole entry)
Kind of experiment: Inhibition of ASK1 (unknown origin) at 500 uM using biotin-MBP as substrate after 20 mins by TR-FRET assay relative to control.

Experiment [4] has as its target Glycogen synthase kinase-3 beta (Homo sapiens, UniProt P49841). The experiment can be described thus: Inhibition of recombinant full length human His-tagged GSK3B expressed in baculovirus expression system.
The target in a further experiment is MAP kinase p38 (Homo sapiens, UniProt O15264+Q15759+Q16539+P53778). Kind of experiment: Inhibition of MAPK p38 (unknown origin).
Experiment [5] deals with Cyclin-dependent kinase 2 (Homo sapiens, UniProt P24941). Kind of experiment: Inhibition of CDK2 (unknown origin).
Another experiment has as its target T3, Ephrin type-A receptor 3 (Homo sapiens, UniProt P29320).
T3 sequence (P29320 whole entry): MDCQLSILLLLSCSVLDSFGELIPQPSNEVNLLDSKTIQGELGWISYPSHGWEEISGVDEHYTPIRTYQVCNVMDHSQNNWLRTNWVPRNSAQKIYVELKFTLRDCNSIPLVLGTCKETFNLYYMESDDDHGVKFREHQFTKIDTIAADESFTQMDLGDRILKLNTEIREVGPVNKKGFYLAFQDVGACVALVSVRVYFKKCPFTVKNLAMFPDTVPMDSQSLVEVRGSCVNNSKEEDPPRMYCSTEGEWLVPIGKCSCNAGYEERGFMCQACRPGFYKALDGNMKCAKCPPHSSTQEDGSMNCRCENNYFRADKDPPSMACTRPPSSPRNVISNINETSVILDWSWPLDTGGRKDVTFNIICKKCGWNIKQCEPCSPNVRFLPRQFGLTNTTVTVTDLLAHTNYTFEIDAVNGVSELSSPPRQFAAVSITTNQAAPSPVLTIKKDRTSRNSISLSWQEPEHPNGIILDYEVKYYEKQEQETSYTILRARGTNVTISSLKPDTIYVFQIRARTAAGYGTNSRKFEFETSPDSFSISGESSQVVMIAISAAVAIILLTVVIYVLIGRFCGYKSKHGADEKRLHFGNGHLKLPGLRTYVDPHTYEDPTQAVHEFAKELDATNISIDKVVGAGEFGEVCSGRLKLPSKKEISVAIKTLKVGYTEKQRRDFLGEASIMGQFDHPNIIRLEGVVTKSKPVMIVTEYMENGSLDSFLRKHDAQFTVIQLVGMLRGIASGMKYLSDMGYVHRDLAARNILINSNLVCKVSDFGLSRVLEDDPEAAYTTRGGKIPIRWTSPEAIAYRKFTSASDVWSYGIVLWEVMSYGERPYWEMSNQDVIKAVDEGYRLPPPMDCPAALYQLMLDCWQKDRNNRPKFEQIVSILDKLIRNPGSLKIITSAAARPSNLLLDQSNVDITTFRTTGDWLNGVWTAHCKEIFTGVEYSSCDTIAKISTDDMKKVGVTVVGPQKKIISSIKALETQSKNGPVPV
Kind of experiment: Inhibition of recombinant human His-tagged EPHA3 cytoplasmic domain (569 to 976 residues) expressed in baculovirus expression system.

Experiment [6] deals with Proto-oncogene tyrosine-protein kinase receptor Ret (Homo sapiens, UniProt P07949). The experiment can be described thus: Inhibition of recombinant human GST-tagged RET cytoplasmic domain expressed in baculovirus expression system.
Experiment [7] addresses 5'-AMP-activated protein kinase catalytic subunit alpha-1 (Homo sapiens, UniProt Q13131). Kind of experiment: Inhibition of PRKAA1 (unknown origin).
Experiment [8] deals with Receptor tyrosine-protein kinase erbB-4 (Homo sapiens, UniProt Q15303). The experiment can be described thus: Inhibition of recombinant human N-terminal GST-tagged ERBB4 cytoplasmic domain (708 to 993 residues) expressed in baculovirus expression system.
The target of experiment [9] is Rho-associated protein kinase 1 (Homo sapiens, UniProt Q13464). Kind of experiment: Inhibition of recombinant human GST-tagged ROCK1 catalytic domain expressed in baculovirus expression system.
Experiment [10] concerns the target Macrophage-stimulating protein receptor (Homo sapiens, UniProt Q04912). The experiment can be described thus: Inhibition of recombinant human GST-tagged RON cytoplasmic domain expressed in baculovirus expression system.
The target in experiment [11] is T4, Tyrosine-protein kinase ITK/TSK (Homo sapiens, UniProt Q08881).
T4 sequence (Q08881 whole entry): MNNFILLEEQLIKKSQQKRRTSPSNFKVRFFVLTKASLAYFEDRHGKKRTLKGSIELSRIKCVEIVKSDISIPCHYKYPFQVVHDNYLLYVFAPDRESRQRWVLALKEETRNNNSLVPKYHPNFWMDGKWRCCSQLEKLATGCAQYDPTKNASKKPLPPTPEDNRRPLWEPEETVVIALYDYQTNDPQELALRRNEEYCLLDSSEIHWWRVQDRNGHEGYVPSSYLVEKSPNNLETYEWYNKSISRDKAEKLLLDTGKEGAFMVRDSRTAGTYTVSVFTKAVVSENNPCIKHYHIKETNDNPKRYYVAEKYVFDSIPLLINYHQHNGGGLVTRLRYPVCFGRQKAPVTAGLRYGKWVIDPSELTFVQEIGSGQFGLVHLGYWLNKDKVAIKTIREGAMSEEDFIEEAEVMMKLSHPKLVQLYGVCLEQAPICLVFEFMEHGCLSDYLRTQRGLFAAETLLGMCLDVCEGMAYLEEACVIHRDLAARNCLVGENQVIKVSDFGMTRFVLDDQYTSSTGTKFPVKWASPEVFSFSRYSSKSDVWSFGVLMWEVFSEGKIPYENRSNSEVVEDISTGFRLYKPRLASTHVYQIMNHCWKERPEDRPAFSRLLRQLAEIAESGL
The experiment can be described thus: Inhibition of recombinant full length human GST-tagged ITK expressed in baculovirus expression system.

In experiment [12] the target is Epidermal growth factor receptor (Homo sapiens, UniProt P00533). The experiment can be described thus: Inhibition of recombinant human GST-tagged EGFR cytoplasmic domain (668 to 1210 residues) expressed in baculovirus expression system.
For experiment [13], the target named is T5, Tyrosine-protein kinase Mer (Homo sapiens, UniProt Q12866).
T5 sequence (Q12866 whole entry): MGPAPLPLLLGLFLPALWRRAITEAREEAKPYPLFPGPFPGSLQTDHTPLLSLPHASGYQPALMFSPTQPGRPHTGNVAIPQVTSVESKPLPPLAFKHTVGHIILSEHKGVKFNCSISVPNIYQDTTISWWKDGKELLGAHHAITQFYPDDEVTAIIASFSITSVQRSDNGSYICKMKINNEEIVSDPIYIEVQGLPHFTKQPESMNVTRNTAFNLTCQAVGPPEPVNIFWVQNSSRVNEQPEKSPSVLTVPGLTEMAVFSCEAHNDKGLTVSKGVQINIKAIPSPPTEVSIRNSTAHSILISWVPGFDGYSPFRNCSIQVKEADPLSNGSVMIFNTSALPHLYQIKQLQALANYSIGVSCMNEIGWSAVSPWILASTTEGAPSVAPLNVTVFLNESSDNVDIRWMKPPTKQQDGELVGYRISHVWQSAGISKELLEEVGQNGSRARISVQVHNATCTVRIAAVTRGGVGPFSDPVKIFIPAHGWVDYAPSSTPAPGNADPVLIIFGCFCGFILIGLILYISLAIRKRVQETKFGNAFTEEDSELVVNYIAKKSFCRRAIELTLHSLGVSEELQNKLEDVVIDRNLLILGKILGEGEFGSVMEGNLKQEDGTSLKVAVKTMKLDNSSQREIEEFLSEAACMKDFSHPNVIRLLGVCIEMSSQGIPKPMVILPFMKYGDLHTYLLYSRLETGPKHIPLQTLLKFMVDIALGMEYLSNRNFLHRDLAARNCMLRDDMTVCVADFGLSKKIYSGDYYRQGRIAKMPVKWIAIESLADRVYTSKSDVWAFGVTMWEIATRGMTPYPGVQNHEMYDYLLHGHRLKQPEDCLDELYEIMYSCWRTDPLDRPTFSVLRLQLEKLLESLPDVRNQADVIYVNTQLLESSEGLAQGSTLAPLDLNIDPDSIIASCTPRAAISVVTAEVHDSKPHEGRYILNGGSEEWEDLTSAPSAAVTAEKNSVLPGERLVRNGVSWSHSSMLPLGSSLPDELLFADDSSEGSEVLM
The experiment can be described thus: Inhibition of recombinant human GST-tagged MER cytoplasmic domain expressed in baculovirus expression system.

Each structure is given as a SMILES string.

Chain of 5'-AMP-activated protein kinase catalytic subunit alpha-1 (Q13131 whole entry, the tested form may be a part): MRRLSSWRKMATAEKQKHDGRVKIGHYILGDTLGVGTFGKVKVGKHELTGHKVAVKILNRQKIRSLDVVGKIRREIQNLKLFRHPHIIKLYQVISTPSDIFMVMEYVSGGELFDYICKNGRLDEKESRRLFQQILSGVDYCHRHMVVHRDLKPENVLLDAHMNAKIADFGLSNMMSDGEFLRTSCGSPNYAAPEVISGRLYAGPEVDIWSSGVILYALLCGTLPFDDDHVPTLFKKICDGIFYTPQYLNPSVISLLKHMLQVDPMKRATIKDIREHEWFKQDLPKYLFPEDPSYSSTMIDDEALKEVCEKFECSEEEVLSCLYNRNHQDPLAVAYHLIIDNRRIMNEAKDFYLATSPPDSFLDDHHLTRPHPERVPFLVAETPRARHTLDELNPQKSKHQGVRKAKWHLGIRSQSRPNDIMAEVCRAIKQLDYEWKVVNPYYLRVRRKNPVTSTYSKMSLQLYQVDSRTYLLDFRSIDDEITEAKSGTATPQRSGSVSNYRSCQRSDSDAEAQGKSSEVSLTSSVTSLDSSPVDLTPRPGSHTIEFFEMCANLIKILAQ
Chain of Epidermal growth factor receptor (P00533 whole entry, the tested form may be a part): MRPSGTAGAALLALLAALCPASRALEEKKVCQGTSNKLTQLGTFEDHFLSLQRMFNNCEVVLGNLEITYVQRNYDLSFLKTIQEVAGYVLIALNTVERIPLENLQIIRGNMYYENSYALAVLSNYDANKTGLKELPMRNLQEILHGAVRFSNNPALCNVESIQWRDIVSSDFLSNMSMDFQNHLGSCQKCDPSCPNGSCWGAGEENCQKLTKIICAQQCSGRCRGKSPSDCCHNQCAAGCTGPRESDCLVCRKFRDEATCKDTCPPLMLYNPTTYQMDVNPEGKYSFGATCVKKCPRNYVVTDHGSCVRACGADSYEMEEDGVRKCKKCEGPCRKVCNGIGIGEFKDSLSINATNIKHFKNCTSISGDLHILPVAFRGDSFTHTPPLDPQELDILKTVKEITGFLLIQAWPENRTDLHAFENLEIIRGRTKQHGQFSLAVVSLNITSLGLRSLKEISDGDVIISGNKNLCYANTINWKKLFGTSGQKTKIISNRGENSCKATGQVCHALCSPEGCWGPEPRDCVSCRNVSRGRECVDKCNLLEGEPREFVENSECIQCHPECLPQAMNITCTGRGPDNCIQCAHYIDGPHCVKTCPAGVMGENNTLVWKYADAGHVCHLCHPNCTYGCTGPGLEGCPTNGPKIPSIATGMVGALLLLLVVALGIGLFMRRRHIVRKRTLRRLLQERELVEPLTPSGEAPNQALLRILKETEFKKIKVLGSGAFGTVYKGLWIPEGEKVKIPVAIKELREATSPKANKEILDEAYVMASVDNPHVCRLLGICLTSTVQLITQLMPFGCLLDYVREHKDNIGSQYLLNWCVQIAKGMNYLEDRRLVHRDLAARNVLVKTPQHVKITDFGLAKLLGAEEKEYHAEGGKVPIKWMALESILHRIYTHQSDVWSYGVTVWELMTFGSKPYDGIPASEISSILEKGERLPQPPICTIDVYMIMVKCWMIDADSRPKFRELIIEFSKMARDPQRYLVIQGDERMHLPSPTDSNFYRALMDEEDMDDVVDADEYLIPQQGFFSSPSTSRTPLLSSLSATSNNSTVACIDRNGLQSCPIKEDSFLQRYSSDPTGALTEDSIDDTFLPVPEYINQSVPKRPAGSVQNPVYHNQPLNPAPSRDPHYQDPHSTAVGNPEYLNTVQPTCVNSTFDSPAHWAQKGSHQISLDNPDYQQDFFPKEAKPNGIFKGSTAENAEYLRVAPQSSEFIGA
Chain of Proto-oncogene tyrosine-protein kinase receptor Ret (P07949 whole entry, the tested form may be a part): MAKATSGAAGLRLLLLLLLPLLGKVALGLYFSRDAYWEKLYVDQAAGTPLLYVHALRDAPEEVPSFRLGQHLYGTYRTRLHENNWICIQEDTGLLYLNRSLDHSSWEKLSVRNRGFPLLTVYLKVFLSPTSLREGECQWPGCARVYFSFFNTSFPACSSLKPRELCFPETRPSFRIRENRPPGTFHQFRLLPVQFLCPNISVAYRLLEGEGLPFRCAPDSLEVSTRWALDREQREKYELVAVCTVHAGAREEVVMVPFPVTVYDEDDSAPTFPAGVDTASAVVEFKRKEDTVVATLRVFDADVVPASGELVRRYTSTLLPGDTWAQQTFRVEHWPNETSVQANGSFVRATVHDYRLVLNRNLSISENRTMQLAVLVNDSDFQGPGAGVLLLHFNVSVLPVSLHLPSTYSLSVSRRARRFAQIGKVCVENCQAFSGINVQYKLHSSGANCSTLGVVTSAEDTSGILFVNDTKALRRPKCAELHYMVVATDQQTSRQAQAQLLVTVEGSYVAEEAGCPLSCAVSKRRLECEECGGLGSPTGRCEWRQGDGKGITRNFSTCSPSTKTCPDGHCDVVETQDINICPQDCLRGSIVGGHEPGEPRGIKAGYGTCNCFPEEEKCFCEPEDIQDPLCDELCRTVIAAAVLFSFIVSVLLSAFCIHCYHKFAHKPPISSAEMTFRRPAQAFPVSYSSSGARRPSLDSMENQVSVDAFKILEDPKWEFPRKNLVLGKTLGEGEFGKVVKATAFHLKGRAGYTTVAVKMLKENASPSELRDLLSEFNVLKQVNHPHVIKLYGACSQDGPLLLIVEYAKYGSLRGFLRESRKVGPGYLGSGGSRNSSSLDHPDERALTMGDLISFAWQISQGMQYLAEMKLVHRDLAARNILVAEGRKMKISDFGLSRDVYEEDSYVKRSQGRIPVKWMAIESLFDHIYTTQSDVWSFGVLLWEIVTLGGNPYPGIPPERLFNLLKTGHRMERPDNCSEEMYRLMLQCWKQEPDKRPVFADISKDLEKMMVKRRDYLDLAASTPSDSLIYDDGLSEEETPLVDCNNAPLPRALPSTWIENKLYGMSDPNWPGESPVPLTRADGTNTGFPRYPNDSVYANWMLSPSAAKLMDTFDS
Chain of Macrophage-stimulating protein receptor (Q04912 25-304 limits assumed): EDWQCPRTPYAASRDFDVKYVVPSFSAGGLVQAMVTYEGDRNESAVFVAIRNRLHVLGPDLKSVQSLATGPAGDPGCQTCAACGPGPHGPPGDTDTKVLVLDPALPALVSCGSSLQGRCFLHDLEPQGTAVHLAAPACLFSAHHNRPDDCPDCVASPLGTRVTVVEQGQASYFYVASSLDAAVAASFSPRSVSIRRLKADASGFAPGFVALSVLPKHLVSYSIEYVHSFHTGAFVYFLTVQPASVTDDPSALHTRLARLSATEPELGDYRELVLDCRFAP
Chain of Macrophage-stimulating protein receptor (Q04912 310-1400 limits assumed): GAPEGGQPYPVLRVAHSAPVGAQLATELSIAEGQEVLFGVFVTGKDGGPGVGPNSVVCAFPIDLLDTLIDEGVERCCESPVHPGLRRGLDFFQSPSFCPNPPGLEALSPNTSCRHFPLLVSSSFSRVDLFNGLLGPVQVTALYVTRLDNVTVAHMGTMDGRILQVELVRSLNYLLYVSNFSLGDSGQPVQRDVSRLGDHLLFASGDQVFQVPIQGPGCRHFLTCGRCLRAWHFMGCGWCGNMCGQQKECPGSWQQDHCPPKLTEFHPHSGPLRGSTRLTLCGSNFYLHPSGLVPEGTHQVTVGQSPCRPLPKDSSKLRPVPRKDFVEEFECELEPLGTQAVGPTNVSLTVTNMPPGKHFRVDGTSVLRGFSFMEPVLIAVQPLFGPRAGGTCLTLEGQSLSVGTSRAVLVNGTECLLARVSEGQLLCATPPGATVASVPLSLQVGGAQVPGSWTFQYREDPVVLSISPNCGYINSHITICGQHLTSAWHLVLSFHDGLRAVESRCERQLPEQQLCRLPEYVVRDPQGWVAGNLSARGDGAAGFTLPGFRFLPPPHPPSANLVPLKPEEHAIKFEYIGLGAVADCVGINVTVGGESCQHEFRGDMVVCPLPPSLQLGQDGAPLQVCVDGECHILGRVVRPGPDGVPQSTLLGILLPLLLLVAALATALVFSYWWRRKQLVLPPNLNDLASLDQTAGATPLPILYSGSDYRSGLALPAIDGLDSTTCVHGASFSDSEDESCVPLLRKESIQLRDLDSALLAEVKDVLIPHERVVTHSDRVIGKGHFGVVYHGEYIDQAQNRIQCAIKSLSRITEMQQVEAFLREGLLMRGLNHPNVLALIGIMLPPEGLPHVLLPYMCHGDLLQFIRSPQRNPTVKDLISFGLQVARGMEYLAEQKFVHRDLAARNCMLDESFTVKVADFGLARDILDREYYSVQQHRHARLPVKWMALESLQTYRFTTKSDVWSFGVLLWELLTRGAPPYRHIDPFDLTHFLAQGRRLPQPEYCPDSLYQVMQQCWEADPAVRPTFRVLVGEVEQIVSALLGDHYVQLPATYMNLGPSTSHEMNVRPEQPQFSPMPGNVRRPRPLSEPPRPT
Chain of Glycogen synthase kinase-3 beta (P49841 whole entry): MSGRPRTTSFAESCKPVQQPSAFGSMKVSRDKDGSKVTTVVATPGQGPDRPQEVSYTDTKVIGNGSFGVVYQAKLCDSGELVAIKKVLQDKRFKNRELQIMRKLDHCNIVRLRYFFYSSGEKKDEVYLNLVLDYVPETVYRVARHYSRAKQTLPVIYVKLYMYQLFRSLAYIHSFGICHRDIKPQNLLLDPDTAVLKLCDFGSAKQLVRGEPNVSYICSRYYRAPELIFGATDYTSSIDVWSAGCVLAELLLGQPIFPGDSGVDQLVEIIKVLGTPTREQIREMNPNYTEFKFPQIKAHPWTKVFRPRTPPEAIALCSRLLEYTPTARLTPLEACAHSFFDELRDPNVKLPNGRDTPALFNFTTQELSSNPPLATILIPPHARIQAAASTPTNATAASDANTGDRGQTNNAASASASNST

As usually defined, the IC50 is the concentration needed to halve the response being measured. Regarding `CC(C)n1cnnc1-c1nc(C(=O)Nc2ccccn2)cs1`, in experiment [1], inhibition was half-maximal at 0.4 µM (IC50).

Broadly, the EC50 is the concentration at which the effect is half-maximal. Turning to `COCCCn1cc(NC(=O)c2csc(-c3nncn3C(C)C)n2)cn1`, in experiment [2], the EC50 was determined as 0.065 µM.

Broadly, the inhibition is the drop in the measured response relative to a control, in per cent. Lower therefore signals little suppression. On to `CCn1cnc(NC(=O)c2ccccc2)c1`, for which the inhibition in [3] stood at 40%.

For the compound `COCCOc1ccnc(NC(=O)c2csc(-c3nncn3C(C)C)n2)c1`, the EC50 in experiment [2] was determined as 0.14 µM.

Take `Cc1ccc(C(=O)Nc2cccc(-c3nncn3C(C)C)n2)c(F)c1`: the IC50 in [1] was found to be 0.055 µM.

As to `CCn1cnc(NC(=O)c2ccoc2)c1`, the inhibition in experiment [3] is 51%. In experiment [1], this compound showed an IC50 of 500 µM.

`CCn1cnc(NC(=O)c2ccco2)c1` displayed an inhibition in experiment [3] of 35%.

What is called pIC50 is −log10 of the IC50, conventionally taken in molar units. The low end stands for a large IC50, the high end for a small IC50. Consider `CC(C)(C)c1ccc(C(=O)Nc2cn3cc(-n4ccnc4)ccc3n2)cc1`, for which the IC50 is 0.832 µM in experiment [4]; 0.155 µM in experiment [5]; above 20 µM on Ephrin type-A receptor 3; 11.5 µM in experiment [6]; 13.8 µM in [7]; above 20 µM in [8]. Besides, the IC50 is 4.9 µM in [9]; above 20 µM in [10]; 5.5 µM in experiment [11]; above 20 µM in experiment [12]; 6.46 µM in experiment [13]. On MAP kinase p38, the pIC50 is below 4.7.

`CCn1cc(NC(=O)c2csc(-c3nncn3C(C)C)n2)cn1`: in experiment [2], the EC50 was found to be 0.6 µM. The compound also showed a 50% inhibitory concentration (IC50) in experiment [1] of 0.6 µM.

Regarding `CCn1cnc(NC(=O)c2cscn2)c1`, in experiment [3], the inhibition turned out to be 75%. It took 100 µM to reach half-maximal inhibition in experiment [1] (IC50).

For `CCn1cnc(NC(=O)C2CCC2)c1`, the inhibition in experiment [3] is below 10%.

Turning to `CC(C)n1cnnc1-c1nc(C(=O)Nc2cnn(C3COC3)c2)cs1`, the EC50 in [2] worked out at 0.13 µM.

Compound `Cc1cc(F)c(C(=O)Nc2ccccn2)cc1-n1cnc(C2CC2)c1` returned an IC50 in experiment [1] of 6 µM.

Turning to `COCCNc1ccnc(NC(=O)c2csc(-c3nncn3C(C)C)n2)c1`, in [2], the concentration for a half-maximal effect (EC50) came to 0.099 µM.

These data come from ChEMBL document CHEMBL4007491, “Structure-based drug design of novel ASK1 inhibitors using an integrated lead optimization strategy” (Bioorg Med Chem Lett, 2017).
